Source: US10253002B2, “Compounds and methods of treating infections” (Neoculi Pty Ltd., priority 2013, dated 2019)
Converted amounts (≈) assume the structure as drawn. “And” between values parts separate entries of the source, which are not always exact repeats. Equal entries are not always repeated. Where two headings read alike, the source gives them in different places.

How the values were obtained:
Experiment in all cases: Broth microdilution MIC, Example 7 (NCL812 and analogues)
MRSA = assay type: cell-based, Staphylococcus aureus; conditions: for activity against MRSA among analogues: MIC testing, two MRSA strains; for MIC (μg/ml) at 24 hours, MRSA 1: MRSA 1, 24 hours; for MIC (μg/ml) at 24 hours, MRSA 2: MRSA 2, 24 hours; for MIC: Staphylococcus aureus; for MIC / MRSA: MRSA
How it was run: (§1)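 Duplicates per isolate, repeated a third time if >one two-fold dilution apart. MIC50, MIC20 and range calculated per bacterial group.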

Escherichia coli = assay type: cell-based; conditions: E. coli, 24 hours; for MIC: Escherichia coli, read-out: MIC (μg/ml) at 24 hours E. coli
Pseudomonas aeruginosa = assay type: cell-based; conditions: for MIC: Pseudomonas aeruginosa, 24 h, read-out: MIC (μg/ml) at 24 hours P. aeruginosa, P. aeruginosa, 24 hours
VRE = assay type: cell-based, Enterococcus spp.; conditions: for activity against VRE among analogues: MIC testing, two VRE strains; for MIC (μg/ml) at 24 hours, VRE 1: VRE 1, 24 hours; for MIC (μg/ml) at 24 hours, VRE 2: VRE 2, 24 hours; for MIC: Enterococcus, VRE, 24 h
How it was run: as §1

[1] = 24 h, read-out: MIC (μg/ml) at 24 hours MRSA 1, MRSA 1, 24 hours
[2] = 24 h, read-out: MIC (μg/ml) at 24 hours MRSA 2, MRSA 2, 24 hours
[3] = read-out: MIC (μg/ml) at 24 hours VRE 1, VRE 1, 24 hours
[4] = read-out: MIC (μg/ml) at 24 hours VRE 2, VRE 2, 24 hours
[5] = bioassay ranking, read-out: MRSA

| SMILES | activity against MRSA among analogues (MRSA) | MIC (μg/ml) at 24 hours, MRSA 1 (MRSA) | MIC (μg/ml) at 24 hours, MRSA 2 (MRSA) | MIC (μg/ml) at 24 hours, E. coli (Escherichia coli) | MIC (μg/ml) at 24 hours, P. aeruginosa (Pseudomonas aeruginosa) | activity against VRE among analogues (VRE) | MIC (μg/ml) at 24 hours, VRE 1 (VRE) | MIC (μg/ml) at 24 hours, VRE 2 (VRE) | MIC (MRSA; [1]) | MIC (MRSA; [2]) | MIC (Escherichia coli) | MIC (Pseudomonas aeruginosa) | MIC (VRE; [3]) | MIC (VRE; [4]) | MIC (MRSA; [5]) | MRSA (MRSA; bioassay ranking) |
| --- | --- | --- | --- | --- | --- | --- | --- | --- | --- | --- | --- | --- | --- | --- | --- | --- |
| CN(C)c1ccc(C=NNC(=N)NN=Cc2ccc(N(C)C)cc2O)c(O)c1 [NCL171] | greatest activity | 128 µg/mL (≈ 334 µM) | 64 µg/mL (≈ 167 µM) | >128 µg/mL | >128 µg/mL | greatest activity | 32 µg/mL (≈ 83.5 µM) | >128 µg/mL |  |  |  |  |  |  |  |  |
| Nc1nc(NNC(=O)c2ccccc2)cc(NNC(=O)c2ccccc2)n1 [NCL194] |  | >128 µg/mL | >128 µg/mL | >128 µg/mL | >128 µg/mL |  | >128 µg/mL | >128 µg/mL |  |  |  |  |  |  |  |  |
| Nc1nc(N/N=C/c2ccc(O)cc2)cc(N/N=C/c2ccc(O)cc2)n1 [NCL196, 4,4′-((1E,1′E)-((2-aminopyrimidine-4,6-diyl)bis(hydrazin-2-yl-1ylidene))bis(methanylylidene))diphenol] |  |  | 32 µg/mL (≈ 88.1 µM) |  | 128 µg/mL (≈ 352 µM) |  | 64 µg/mL (≈ 176 µM) |  | 32 µg/mL (≈ 88.1 µM) | 64 µg/mL (≈ 176 µM) | 64 µg/mL (≈ 176 µM) | 64 µg/mL (≈ 176 µM) | 32 µg/mL (≈ 88.1 µM) | 64 µg/mL (≈ 176 µM) |  |  |
| CC(C)(C)c1ccc(/C=N/Nc2cc(N/N=C/c3ccc(C(C)(C)C)cc3)nc(N)n2)cc1.Cl.Cl [NCL198] |  | >128 µg/mL | >128 µg/mL | >128 µg/mL | >128 µg/mL |  | >128 µg/mL | >128 µg/mL |  |  |  |  |  |  |  |  |
| Nc1nc(N/N=C/c2ccccc2)cc(N/N=C/c2ccccc2)n1 [NCL199] | greatest activity | 4 µg/mL (≈ 12.1 µM) |  |  |  |  |  |  | 2 µg/mL (≈ 6.04 µM) | 4 µg/mL (≈ 12.1 µM) | > 128 µg/mL | > 128 µg/mL | > 128 µg/mL | > 128 µg/mL | 3.5 µg/mL (≈ 10.6 µM) |  |
| CC(C)(C)c1ccc(/C=N/Nc2cc(N/N=C/c3ccc(C(C)(C)C)cc3)nc(N)n2)cc1 [NCL200] |  | >128 µg/mL | >128 µg/mL | >128 µg/mL | >128 µg/mL |  | >128 µg/mL | >128 µg/mL |  |  |  |  |  |  |  |  |
| CN(C)c1ccc(/C=N/Nc2cc(N/N=C/c3ccc(N(C)C)cc3)nc(N)n2)cc1 [NCL201] | greatest activity | 32 µg/mL and 64 µg/mL | 16 µg/mL and 32 µg/mL | >128 µg/mL | >128 µg/mL |  | >128 µg/mL | >128 µg/mL |  |  |  |  |  |  |  |  |
| C/C(=N\Nc1cc(N/N=C(\C)c2ccc(Cl)cc2)nc(N)n1)c1ccc(Cl)cc1 [NCL204] | greatest activity | 8 µg/mL (≈ 18.7 µM) | 8 µg/mL (≈ 18.7 µM) |  |  | greatest activity |  |  | 4 µg/mL (≈ 9.34 µM) | 4 µg/mL (≈ 9.34 µM) | > 128 µg/mL | > 128 µg/mL | 64 µg/mL (≈ 149 µM) | > 128 µg/mL | 6 µg/mL (≈ 14 µM) |  |
| Nc1nc(N/N=C/c2ccccc2Cl)cc(N/N=C/c2ccccc2Cl)n1 [NCL205] | greatest activity | 4 µg/mL and 8 µg/mL | 4 µg/mL and 8 µg/mL | >128 µg/mL | >128 µg/mL | greatest activity | 64 µg/mL (≈ 160 µM) | >128 µg/mL |  |  |  |  |  |  |  | 6 µg/mL |
| Cc1ccc(/C=N/Nc2nc(N)nc(N/N=C/c3ccc(C)cc3)n2)cc1 [NCL206] |  | >128 µg/mL | >128 µg/mL | >128 µg/mL | >128 µg/mL |  | >128 µg/mL | >128 µg/mL |  |  |  |  |  |  |  |  |
| Nc1nc(N/N=C/c2ccccc2O)nc(N/N=C/c2ccccc2O)n1 [NCL207] | greatest activity | 16 µg/mL and 32 µg/mL | 32 µg/mL (≈ 87.8 µM) | >128 µg/mL | >128 µg/mL |  | >128 µg/mL | >128 µg/mL |  |  |  |  |  |  |  | 28 µg/mL |
| C/C(=N\Nc1nc(N)nc(N/N=C(\C)c2ccc(Cl)cc2)n1)c1ccc(Cl)cc1 [NCL208] |  | >128 µg/mL | >128 µg/mL | >128 µg/mL | >128 µg/mL |  | >128 µg/mL | >128 µg/mL |  |  |  |  |  |  |  |  |
| Nc1nc(N/N=C/c2cccc(O)c2)nc(N/N=C/c2cccc(O)c2)n1 [NCL209] |  | >128 µg/mL | >128 µg/mL | >128 µg/mL | >128 µg/mL |  | >128 µg/mL | >128 µg/mL |  |  |  |  |  |  |  |  |
| Nc1nc(N/N=C/c2ccc(C(F)(F)F)cc2)nc(N/N=C/c2ccc(C(F)(F)F)cc2)n1 [NCL210] |  | >128 µg/mL | >128 µg/mL | >128 µg/mL | >128 µg/mL | greatest activity | 128 µg/mL (≈ 273 µM) | 32 µg/mL and 64 µg/mL |  |  |  |  |  |  |  |  |
